Assay results as given in paper PMC12123601, “Light-Induced, Lysine-Targeting Irreversible Covalent Inhibition of the Human Oxygen Sensing Hydroxylase Factor Inhibiting HIF (FIH)” (Journal of the American Chemical Society, 2025).

Target: FIH (Homo sapiens, UniProt Q9NWT6)
Assay: O-phenylenediamine (OPD) 2OG derivatization turnover assay (remaining 2OG in FIH hydroxylation system)
Format: biochemical
Design: Concentration of remaining 2OG: unit: µM
Method: To explore whether the covalent inhibitor can effectively and sustainably prevent the hydroxylation process catalyzed by FIH, the inhibitory activities against FIH were evaluated using the fluorescent O-phenylenediamine (OPD) 2OG derivatization turnover assay (Figure S9).
Figure S9. Schematic of the O-phenylenediamine (OPD) fluorescent derivative assay6. The assay monitors depletion of 2OG.
(1 picture or pasted object on this page, not shown here) […]
pET28a vectors encoding for full-length FIH with an N-terminal His6 tag or for FIH (K106A) with an N-terminal His6 tag were purchased from Nanjing Zoonbio Biotechnology. Both the FIHWT and FIHK106A protein were expressed from the respective plasmid in Escherichia coli BL21 at 20 °C for 16 h. E. coli cells were lysed and the lysate were clarified by centrifugation. His6-tagged FIHWT or FIHK106A was purified on a HisTrap affinity column (GE Healthcare) by elution with an imidazole gradient. The final purified proteins were stored in PBS buffer. […]
Ki = I50 / [1 + ([L]50 + [P]0)/Kd] […]
3.2 O-Phenylenediamine (OPD) fluorescent derivative assay
Assays were carried out by mixing 1 mM DTT, 0.6 mg/mL of catalase, 200 μM 2-OG, 50 mM Hepes, 200 μM HIF-1α (788-807), and inhibitors at pH 7.0 to a final volume of 44 μL and incubated at 37 °C for 5 min. At the same time, FIH enzyme and iron (prepared as 200 mM stock in 20 mM HCl and diluted with water) were mixed at room temperature for 3 min. […] The reaction was stopped by the addition of 100 μL of 0.5 M HCl. After adding 50 μL of 10 mg/mL OPD in 0.5 M HCl and heating at 95 °C for 10 min, the derivatization was achieved. Then, 50 μL of the mixture centrifugated for 5 min was made basic by adding 30 μL of 1.25 M NaOH, and then fluorescence was detected by SPARK Multi-Mode Microplate Reader (Tecan). […]
Crystals were cryo -protected using mother liquor supplemented with 25%v/v glycerol before manual loop cryo -cooling in liquid N2.
Data for ligand -bound protein complexes were from single crystals at 100 K using Diamond Light Source (UK) beamlines. The FIH crystal structures were determined by molecular replacement (MR) using the AutoMR (PHASER) subroutine in PHENIX (version 1.18.2) based on the PDB ID: 1H2K crystal structure .

Sequence of FIH (Q9NWT6 whole entry): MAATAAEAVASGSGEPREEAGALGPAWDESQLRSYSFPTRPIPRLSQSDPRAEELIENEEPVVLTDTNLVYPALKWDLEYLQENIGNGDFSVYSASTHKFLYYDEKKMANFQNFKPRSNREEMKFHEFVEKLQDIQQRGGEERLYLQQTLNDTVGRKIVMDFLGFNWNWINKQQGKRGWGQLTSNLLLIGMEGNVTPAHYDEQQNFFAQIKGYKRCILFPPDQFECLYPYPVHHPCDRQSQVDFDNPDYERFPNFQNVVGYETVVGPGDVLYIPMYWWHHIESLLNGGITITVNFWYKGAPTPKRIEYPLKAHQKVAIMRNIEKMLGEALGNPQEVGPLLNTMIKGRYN

O=C(O)CNC(=O)c1ncc(-c2cc(-c3ccc(CO)c([N+](=O)[O-])c3)no2)cc1O [NBA-ZG-2291]
Inhibition of FIH hydroxylation activity on the HIF peptide (2OG consumption) (compared to ZG-2291): more potent and sustained inhibition of FIH hydroxylation activity
Concentration of remaining 2OG (inhibitor 0.14 μM, incubation 0 min, 200 μM 2-OG at start): 200.0
Concentration of remaining 2OG (inhibitor 0.14 μM, incubation 15 min): 187.5
Concentration of remaining 2OG (inhibitor 0.14 μM, incubation 30 min): 184.6
Concentration of remaining 2OG (inhibitor 0.14 μM, incubation 1 h): 174.8
Concentration of remaining 2OG (inhibitor 0.14 μM, incubation 4 h): 163.1
Concentration of remaining 2OG (inhibitor 0.41 μM, incubation 0 min, 200 μM 2-OG at start): 200.0
Concentration of remaining 2OG (inhibitor 0.41 μM, incubation 15 min): 189.1
Concentration of remaining 2OG (inhibitor 0.41 μM, incubation 30 min): 188.8
Concentration of remaining 2OG (inhibitor 0.41 μM, incubation 1 h): 184.6
Concentration of remaining 2OG (inhibitor 0.41 μM, incubation 4 h): 171.6
Concentration of remaining 2OG (inhibitor 1.23 μM, incubation 0 min, 200 μM 2-OG at start): 200.0
Concentration of remaining 2OG (inhibitor 1.23 μM, incubation 15 min): 191.6
Concentration of remaining 2OG (inhibitor 1.23 μM, incubation 30 min): 190.6
Concentration of remaining 2OG (inhibitor 1.23 μM, incubation 1 h): 187.9
Concentration of remaining 2OG (inhibitor 1.23 μM, incubation 4 h): 182.8
Concentration of remaining 2OG (inhibitor 3.70 μM, incubation 0 min, 200 μM 2-OG at start): 200.0
Concentration of remaining 2OG (inhibitor 3.70 μM, incubation 15 min): 194.0
Concentration of remaining 2OG (inhibitor 3.70 μM, incubation 30 min): 193.5
Concentration of remaining 2OG (inhibitor 3.70 μM, incubation 1 h): 189.6
Concentration of remaining 2OG (inhibitor 3.70 μM, incubation 4 h): 185.3
Concentration of remaining 2OG (inhibitor 11.1 μM, incubation 0 min, 200 μM 2-OG at start): 200.0
Concentration of remaining 2OG (inhibitor 11.1 μM, incubation 15 min): 199.7
Concentration of remaining 2OG (inhibitor 11.1 μM, incubation 30 min): 198.7
Concentration of remaining 2OG (inhibitor 11.1 μM, incubation 1 h): 197.8
Concentration of remaining 2OG (inhibitor 11.1 μM, incubation 4 h): 197.2
Concentration of remaining 2OG (inhibitor 33.3 μM, incubation 0 min, 200 μM 2-OG at start): 200.0
Concentration of remaining 2OG (inhibitor 33.3 μM, incubation 15 min): 200.8
Concentration of remaining 2OG (inhibitor 33.3 μM, incubation 30 min): 198.7
Concentration of remaining 2OG (inhibitor 33.3 μM, incubation 1 h): 197.6
Concentration of remaining 2OG (inhibitor 33.3 μM, incubation 4 h): 197.3
Concentration of remaining 2OG (inhibitor 100 μM, incubation 0 min, 200 μM 2-OG at start): 200.0
Concentration of remaining 2OG (inhibitor 100 μM, incubation 15 min): 200.1
Concentration of remaining 2OG (inhibitor 100 μM, incubation 30 min): 199.2
Concentration of remaining 2OG (inhibitor 100 μM, incubation 1 h): 198.5
Concentration of remaining 2OG (inhibitor 100 μM, incubation 4 h): 198.3
Concentration of remaining 2OG (inhibitor 300 μM, incubation 0 min, 200 μM 2-OG at start): 200.0
Concentration of remaining 2OG (inhibitor 300 μM, incubation 15 min): 201.4
Concentration of remaining 2OG (inhibitor 300 μM, incubation 30 min): 199.5
Concentration of remaining 2OG (inhibitor 300 μM, incubation 1 h): 199.2
Concentration of remaining 2OG (inhibitor 300 μM, incubation 4 h): 198.6
